According to patent US20250109127A1, “METHODS OF USE OF PHENOXYPROPYLAMINE COMPOUNDS TO TREAT DEPRESSION” (Minerva Neurosciences, Inc., priority 2013, published 2025):
Several values for one entry are separate records, joined by “and”; a condition that tells them apart may be missing. Equal values may be shown once.

System: 5-HT release in the rat prefrontal cortex
Test: Microdialysis: 5-HT release in prefrontal cortex after I.P. administration
Format: in vivo
Conditions: for 5-HT in dialysate, MEAN / 5-HT in dialysate, individual animals: Citalopram 10 mg/kg I.P.
Description: The aim of the study was to evaluate, using microdialysis, the effects of an intraperitoneal (I.P.) administration in rats of three different doses of SON-117 on dopamine and its metabolites, serotonin and its metabolite (5-HIAA), and norepinephrine levels in prefrontal cortex.
Thirty-two adult male Wistar rats were used for the whole study (4 groups of eight animals planned for the study, Table 1).
Surgery was performed on rats weighing about 300 g at the beginning of the experiments. Rats were anaesthetized with Ketamine (50 mg/kg) & Xylazine (15 mg/kg) by intramuscular administration. The animals were placed in a stereotaxic apparatus in the flat-skull position at a constant setting of −3.3 mm between ear bars and the incisor bar. The animals were treated with a local anesthesic (xylocaine 1%, Astra Zeneca) and an analgesic (Temgesic, from Schering Plough, 0.05 mg/kg, s.c.). A rostrocaudal midline incision was made with a lancet to expose the dorsal skull surface. The “stereotaxic zero” was defined by the Bregma in accordance with Paxinos and Watson's atlas (1986). A hole was drilled in the skull with a drill and the meninges were pierced with a sterile needle to implant a CMA12 guide cannula which later received the dialysis probe.
Coordinates used for implanting guide cannula in prefrontal cortex from Bregma were anteroposterior 3.7 mm, mediolateral 0.8 mm, and dorsoventral −2 mm (top of the probe was at −5 mm). The guide cannula was fixed to the skull with two stainless steel screws (1.88 mm outside diameter) anchored. An application of dental cement was added. A plastic collar allowed each animal to be tethered to a Swivel assembly of the CMA 120 awake animal system. Following surgery, rats were kept in individual cages and allowed to recover for a minimum of 3-5 days before the experimentation. The rats were handled and put in plastic bowl for 10 min at least every day to habituate the animals to their new environment for the dialysis. An I.P. administration with saline was also performed every day.
Dialysis probes (CMA12/3 mm, membrane, 20 kD cut-off, Carnegie Medicine, Stockholm, Sweden), were carefully washed before inserting into the guide cannula. The wash was performed with the artificial cerebrospinal fluid (aCSF) medium (NaCl 147 mM, KCl 2.7 mM, CaCl2 1.2 mM, MgCl2 0.85 mM) at room temperature. The dialysis system was then equilibrated at 20° C. at a perfusion rate of 1 μl/min with a Carnegie pump (CMA100). All catheters (FEP tubing, internal volume of 1.2 μl/10 cm, and tubing adaptors) used for microdialysis were treated in the same conditions.
The probes duly prepared were inserted into the guide cannula and the CMA120 Swivel assembly secured to the animal using a plastic collar. Flow through the dialysis probe with aCSF was maintained at a rate of 1 μl/min during the whole experimentation. The first four fractions (corresponding to 2 hours) were discarded to avoid the effects of parenchymal disturbance and to ensure that an approximate steady-state level was reached. Fractions were then collected over a period of 8.5 h during which time the animals remained quiet. The dialysates were automatically collected with an autosampler (microfraction collector CMA 140, Carnegie Medicin) and stored at −80° C. until analysis. […] Perfusion was then maintained for 7 hours with aCSF. The dialysates (30 μl) were collected into 300 μl vials, transferred into dry ice and then kept frozen (−80° C.) until analysis. Frozen samples were shipped to a partner for analysis. At the end of the microdialysis study, a PBS with colored ink was perfused through the probe in order to visualize the dialyzed area.
Catecholamine assay: Concentrations of dopamine, DOPAC, HVA, 5-HIAA, 5-HT, and norepinephrin were determined for each sample by HPLC coupled with electrochemical detection. […]

CN(C)CCCC1(c2ccc(F)cc2)OCc2cc(C#N)ccc21 (centres unmarked) [Citalopram, citalopram, reference compound]
5-HT in dialysate, MEAN (T0-T30 min): 85.23 % of respective basal
5-HT in dialysate, MEAN (T30-T1 h): 218.92 % of respective basal
5-HT in dialysate, individual animals (T30-T1 h): 203.59 % of respective basal and 157.98 % of respective basal and 133.67 % of respective basal and 139.45 % of respective basal and 219.64 % of respective basal and 344.10 % of respective basal and 285.92 % of respective basal and 267.00 % of respective basal
5-HT in dialysate, MEAN (T1 h 30-T2 h): 170.67 % of respective basal
5-HT in dialysate, individual animals (T1 h 30-T2 h): 103.23 % of respective basal and 101.96 % of respective basal and 153.81 % of respective basal and 83.91 % of respective basal and 207.6 % of respective basal and 351.79 % of respective basal and 164.94 % of respective basal and 198.14 % of respective basal
5-HT in dialysate, MEAN (T1 h-T1 h 30): 171.48 % of respective basal
5-HT in dialysate, individual animals (T1 h-T1 h 30): 162.56 % of respective basal and 151.29 % of respective basal and 167.46 % of respective basal and 128.56 % of respective basal and 232.85 % of respective basal and 235.03 % of respective basal and 158.66 % of respective basal and 135.42 % of respective basal
5-HT in dialysate, MEAN (T2 h 30-T3 h): 116.57 % of respective basal
5-HT in dialysate, individual animals (T2 h 30-T3 h): 109.55 % of respective basal and 38.11 % of respective basal and 79.68 % of respective basal and 57.89 % of respective basal and 152.73 % of respective basal and 299.86 % of respective basal and 89.94 % of respective basal and 104.76 % of respective basal
5-HT in dialysate, MEAN (T2 h-T2 h 30): 138.70 % of respective basal
5-HT in dialysate, individual animals (T2 h-T2 h 30): 97.34 % of respective basal and 43.80 % of respective basal and 100.91 % of respective basal and 83.82 % of respective basal and 153.02 % of respective basal and 315.50 % of respective basal and 215.03 % of respective basal and 100.89 % of respective basal
5-HT in dialysate, MEAN (T3 h 30-T4 h): 126.49 % of respective basal
5-HT in dialysate, individual animals (T3 h 30-T4 h): 93.89 % of respective basal and 20.30 % of respective basal and 84.02 % of respective basal and 59.96 % of respective basal and 97.06 % of respective basal and 476.98 % of respective basal and 67.07 % of respective basal and 112.62 % of respective basal
5-HT in dialysate, MEAN (T3 h-T3 h 30): 136.30 % of respective basal
5-HT in dialysate, individual animals (T3 h-T3 h 30): 88.23 % of respective basal and 47.91 % of respective basal and 85.22 % of respective basal and 48.54 % of respective basal and 108.35 % of respective basal and 516.29 % of respective basal and 70.00 % of respective basal and 125.89 % of respective basal
5-HT in dialysate, MEAN (T4 h 30-T5 h): 90.86 % of respective basal
5-HT in dialysate, individual animals (T4 h 30-T5 h): 89.09 % of respective basal and 13.90 % of respective basal and 77.20 % of respective basal and 44.62 % of respective basal and 120.70 % of respective basal and 212.73 % of respective basal and 55.57 % of respective basal and 113.09 % of respective basal
5-HT in dialysate, MEAN (T4 h-T4 h 30): 97.87 % of respective basal
5-HT in dialysate, individual animals (T4 h-T4 h 30): 128.06 % of respective basal and 25.07 % of respective basal and 73.75 % of respective basal and 50.85 % of respective basal and 85.54 % of respective basal and 261.90 % of respective basal and 76.87 % of respective basal and 80.93 % of respective basal
5-HT in dialysate, MEAN (T5 h 30-T6 h): 75.87 % of respective basal
5-HT in dialysate, individual animals (T5 h 30-T6 h): 78.66 % of respective basal and 7.95 % of respective basal and 69.20 % of respective basal and 42.04 % of respective basal and 72.98 % of respective basal and 142.95 % of respective basal and 74.38 % of respective basal and 118.79 % of respective basal
5-HT in dialysate, MEAN (T5 h-T5 h 30): 92.05 % of respective basal
5-HT in dialysate, individual animals (T5 h-T5 h 30): 77.74 % of respective basal and 11.81 % of respective basal and 73.01 % of respective basal and 50.89 % of respective basal and 87.24 % of respective basal and 227.76 % of respective basal and 54.20 % of respective basal and 153.73 % of respective basal
5-HT in dialysate, MEAN (T6 h 30-T7 h): 76.63 % of respective basal
5-HT in dialysate, individual animals (T6 h 30-T7 h): 87.93 % of respective basal and 11.23 % of respective basal and 60.60 % of respective basal and 41.05 % of respective basal
5-HT in dialysate, MEAN (T6 h-T6 h 30): 79.25 % of respective basal
5-HT in dialysate, individual animals (T6 h-T6 h 30): 70.23 % of respective basal and 12.51 % of respective basal and 74.22 % of respective basal and 42.28 % of respective basal and 81.01 % of respective basal and 173.04 % of respective basal and 63.01 % of respective basal and 117.68 % of respective basal
5-HT in dialysate, MEAN (T-30 min-T0 (pre-dose)): 87.59 % of respective basal
5-HT in dialysate, MEAN (T-1 h 30-T-1 h (pre-dose)): 108.45 % of respective basal
5-HT in dialysate, MEAN (T-1 h-T-30 min (pre-dose)): 105.84 % of respective basal
5-HT concentrations in prefrontal cortex, significant increase (citalopram 10 mg/kg IP, from 1 h to 2 h): 219%
5-HT release, maximum increase observed (citalopram 10 mg/kg, at 1 h): 218%
